Test results taken from ChEMBL document CHEMBL1201862, “PubChem BioAssay data set” (2004).
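In this assay, cells in 96-well plates receive the compound at five concentrations for 48 hours. Endpoints are linearly interpolated between the surrounding concentrations. The concentration for 50% growth inhibition is given as GI50.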 Calls of active or inactive are those of the source. Cut-off read from the data, not from the text of the source: active = GI50 up to about 1.1 µM and inactive = higher.

How the values were obtained:
Experiment in all cases: NCI-60 cell line screen, 48 h
SF-539 = tested on: SF-539
NCI/ADR-RES = tested on: NCI/ADR-RES
CAKI-1 = tested on: CAKI-1
NCI-H460 = tested on: NCI-H460
KM12 = tested on: KM12
TK-10 = tested on: TK-10
HCC 2998 = tested on: HCC 2998
UACC-62 = tested on: UACC-62
OVCAR-4 = tested on: OVCAR-4
T47D = tested on: T47D
SF-295 = tested on: SF-295
Hs-578T = tested on: Hs-578T
NCI-H522 = tested on: NCI-H522
RPMI-8226 = tested on: RPMI-8226
K562 = tested on: K562
A498 = tested on: A498
SK-MEL-5 = tested on: SK-MEL-5
HCT-15 = tested on: HCT-15
HOP-92 = tested on: HOP-92
IGROV-1 = tested on: IGROV-1

| Structure (SMILES) | GI50 (SF-539) | GI50 (NCI/ADR-RES) | GI50 (CAKI-1) | GI50 (NCI-H460) | GI50 (KM12) | GI50 (TK-10) | GI50 (HCC 2998) | GI50 (UACC-62) | GI50 (OVCAR-4) | GI50 (T47D) | GI50 (SF-295) | GI50 (Hs-578T) | GI50 (NCI-H522) | GI50 (RPMI-8226) | GI50 (K562) | GI50 (A498) | GI50 (SK-MEL-5) | GI50 (HCT-15) | GI50 (HOP-92) | GI50 (IGROV-1) |
| --- | --- | --- | --- | --- | --- | --- | --- | --- | --- | --- | --- | --- | --- | --- | --- | --- | --- | --- | --- | --- |
| O=C(Nc1ccc(Cl)cc1)c1cc(S(=O)(=O)NC2=Nc3ccc(Cl)cc3C(c3ccccc3)N2)c(SSc2cc(Cl)c(C(=O)Nc3ccc(Cl)cc3)cc2S(=O)(=O)NC2=Nc3ccc(Cl)cc3C(c3ccccc3)N2)cc1Cl (stereo not given) | > 100 µM (inactive) | > 100 µM (inactive) | > 100 µM (inactive) | > 100 µM (inactive) | > 100 µM (inactive) | > 100 µM (inactive) | > 100 µM (inactive) | > 90.4 µM (inactive) | > 100 µM (inactive) | > 100 µM (inactive) | > 100 µM (inactive) | > 100 µM (inactive) | > 100 µM (inactive) | 97.1 µM (inactive) | 46.8 µM (inactive) | > 100 µM (inactive) | > 73.3 µM (inactive) | > 100 µM | 83.4 µM (inactive) | > 100 µM (inactive) |
| C[N+]1(CC[N+]2(C)CCCC2c2cccnc2)CCCC1c1cccnc1 (stereo not given) | > 100 µM (inactive) | > 100 µM (inactive) | > 100 µM (inactive) | > 100 µM (inactive) | > 100 µM (inactive) | > 100 µM (inactive) | > 100 µM (inactive) | > 100 µM (inactive) | > 100 µM (inactive) | 42.4 µM (inactive) | > 100 µM (inactive) | > 100 µM (inactive) | > 100 µM (inactive) | 97.7 µM (inactive) | 96.4 µM (inactive) | > 100 µM (inactive) | > 100 µM (inactive) | > 100 µM | > 100 µM (inactive) | > 100 µM (inactive) |
| CCOc1cc(NC(C)=O)ccc1C(=O)NN1C(=O)C(Cl)C1c1ccccc1 (stereo not given) | 10.9 µM (inactive) | 25.1 µM (inactive) | 15.4 µM (inactive) | 16 µM (inactive) | 17.3 µM (inactive) | 16.6 µM (inactive) | 17.4 µM (inactive) | 11 µM (inactive) | 13.5 µM (inactive) | 12.5 µM (inactive) | 20.4 µM (inactive) | 21.2 µM (inactive) | 2.24 µM (inactive) | 9.95 µM (inactive) | 5.32 µM (inactive) | 17.4 µM (inactive) | 10.1 µM (inactive) | 16.1 µM | 12.9 µM (inactive) | 3.92 µM (inactive) |
| COc1cc2c(cc1OC)C1Cc3ccccc3CCN1CC2 (stereo not given) | > 100 µM (inactive) | > 100 µM (inactive) | > 100 µM (inactive) | > 100 µM (inactive) | > 100 µM (inactive) | > 100 µM (inactive) | 44 µM (inactive) | > 100 µM (inactive) | > 100 µM (inactive) | > 100 µM (inactive) | 81.1 µM (inactive) | > 100 µM (inactive) | > 100 µM (inactive) | > 100 µM (inactive) | 62.1 µM (inactive) | > 100 µM (inactive) | 58.1 µM (inactive) | > 100 µM | 36.1 µM (inactive) | > 100 µM (inactive) |
| O=Cc1c2c(cc3c1CC1(C3)Cc3cc4c(c(C=O)c3C1)CCCC4)CCCC2 | > 31.6 µM (inactive) | > 31.6 µM (inactive) | 46.5 µM (inactive) | 52.2 µM (inactive) | 21.6 µM (inactive) | > 31.6 µM (inactive) | 29.4 µM (inactive) | > 31.6 µM (inactive) | > 31.6 µM (inactive) | > 31.6 µM (inactive) | 20.6 µM (inactive) | > 31.6 µM (inactive) | 14.3 µM (inactive) | 16.8 µM (inactive) | 21.1 µM (inactive) | > 10 µM (inactive) | > 31.6 µM (inactive) | 19.2 µM | 15.5 µM (inactive) | 23 µM (inactive) |
| COc1c(O)c(O)cc2c1-c1ccc(OC)c(=O)cc1C(NC(C)=O)CC2 (stereo not given) | 2.81 µM (inactive) | 29 µM (inactive) | 24.2 µM (inactive) | 6.07 µM (inactive) | 3.43 µM (inactive) | 65.2 µM (inactive) | 5.38 µM (inactive) | 4.36 µM (inactive) | 22.6 µM (inactive) | > 100 µM (inactive) | 5.13 µM (inactive) | 2.66 µM (inactive) | 1.84 µM (inactive) | 10.9 µM (inactive) | 3.57 µM (inactive) | 15.5 µM (inactive) | 2.52 µM (inactive) | 30.6 µM | 2.7 µM (inactive) | 5.26 µM (inactive) |
| COC(=O)/C=C1\CCCN1CCc1cc2c(cc1CC#N)OCO2 | 46.8 µM (inactive) | 69.8 µM (inactive) | > 100 µM (inactive) | 36 µM (inactive) | 30.7 µM (inactive) | > 100 µM (inactive) | 28.1 µM (inactive) | 31.4 µM (inactive) | 51.3 µM (inactive) | 38.7 µM (inactive) | 38.5 µM (inactive) | > 100 µM (inactive) | > 100 µM (inactive) | 37 µM (inactive) | 49.4 µM (inactive) | 32.7 µM (inactive) | 25.6 µM (inactive) | 43.2 µM | > 100 µM (inactive) | > 100 µM (inactive) |
| C=CC[C@]1(C2=NC(C)(C)CO2)c2ccccc2-c2ccccc2[C@H]1C(C)=O | 10.8 µM (inactive) | 4 µM (inactive) | 10.5 µM (inactive) | 6.03 µM (inactive) | 5.73 µM (inactive) | 12.5 µM (inactive) | 8.11 µM (inactive) | 5.65 µM (inactive) | 15.6 µM (inactive) | 13 µM (inactive) | 4.61 µM (inactive) | 6.5 µM (inactive) | 2.61 µM (inactive) | 7.23 µM (inactive) | 4.91 µM (inactive) | 7.67 µM (inactive) | 3.54 µM (inactive) | 4.82 µM | 16.4 µM (inactive) | 8.38 µM (inactive) |
| N#Cc1c(O)c(/N=N/c2ccc(Cl)cc2)c(=O)n2c1[nH]c1ccccc12 | 53.8 µM (inactive) | 44 µM (inactive) | 78.3 µM (inactive) | 45.6 µM (inactive) | 47 µM (inactive) | 54 µM (inactive) | 41.5 µM (inactive) | 29.7 µM (inactive) | 67 µM (inactive) | 27.1 µM (inactive) | 36.9 µM (inactive) | 52.1 µM (inactive) | 33.3 µM (inactive) | 21.5 µM (inactive) | 32.6 µM (inactive) | 37.6 µM (inactive) | 53.7 µM (inactive) | 28.1 µM | 26.1 µM (inactive) | 73.1 µM (inactive) |
| COCC(=O)OC1CCn2c1nc1c2C(=O)C(C)=C(NC(C)=O)C1=N (stereo not given) | 2.07 µM (inactive) | 3.99 µM (inactive) | 11.2 µM (inactive) | 14 µM (inactive) | 14.2 µM (inactive) | 15.6 µM (inactive) | 13.7 µM (inactive) | 1.66 µM (inactive) | 2.19 µM (inactive) | 1.95 µM (inactive) | 16.1 µM (inactive) | 4.1 µM (inactive) | 5.01 µM (inactive) | 2.27 µM (inactive) | 2.63 µM (inactive) | 18.5 µM (inactive) | 2.42 µM (inactive) | 8.13 µM | 3.57 µM (inactive) | 10.8 µM (inactive) |
| O=C(CCSC1=NCCCN1)c1ccc(F)cc1 | 15.7 µM (inactive) | 28.1 µM (inactive) | 17.2 µM (inactive) | 22 µM (inactive) | 19.7 µM (inactive) | 15.8 µM (inactive) | 18.6 µM (inactive) | 17.2 µM (inactive) | 21.6 µM (inactive) | 21.9 µM (inactive) | 37.8 µM (inactive) | 22 µM (inactive) | 2.08 µM (inactive) | 2.15 µM (inactive) | 3.13 µM (inactive) | 20.6 µM (inactive) | 18.9 µM (inactive) | 13.1 µM | 20.6 µM (inactive) | 18 µM (inactive) |
| Cc1ccc2c(sc(-c3ccc4c(c3)sc(-c3ccc(N(C)C)cc3)[n+]4C)[n+]2C)c1S(=O)(=O)O.Cc1ccc2c(sc(-c3ccc4c(c3)sc(-c3ccc5c(c3)sc(-c3ccc(N(C)C)cc3)[n+]5C)[n+]4C)[n+]2C)c1S(=O)(=O)O | > 100 µM (inactive) | > 100 µM (inactive) | 10 µM (inactive) | 10 µM (inactive) | 73.1 µM (inactive) | > 100 µM (inactive) | > 100 µM (inactive) | > 100 µM (inactive) | 43 µM (inactive) | 85.9 µM (inactive) | > 100 µM (inactive) | 72.4 µM (inactive) | 30.4 µM (inactive) | 80.2 µM (inactive) | 35.5 µM (inactive) | > 100 µM (inactive) | > 100 µM (inactive) | 66.1 µM | > 100 µM (inactive) | 9.79 µM (inactive) |
| CCCc1nc(Cl)nc(Cl)c1Cl | 1.52 µM (inactive) | 0.32 µM (active) | 0.251 µM (active) | 0.505 µM (active) | 0.543 µM (active) | 0.762 µM (active) | 1.08 µM (active) | 0.703 µM (active) | 0.0871 µM (active) | 0.857 µM (active) | 2.33 µM (inactive) | 0.475 µM (active) | 0.374 µM (active) | 0.258 µM (active) | < 0.0343 µM (active) | 2.87 µM (inactive) | 0.935 µM (active) | 0.0796 µM | 0.0104 µM (active) | 0.807 µM (active) |
| COc1cc(-c2cc(=O)c3cc4c(=O)cc(-c5cc(OC)c(OC)c(OC)c5)oc4cc3o2)cc(OC)c1OC | 58.3 µM (inactive) | 65.9 µM (inactive) | 23.2 µM (inactive) | > 100 µM (inactive) | > 100 µM (inactive) | 16.3 µM (inactive) | > 100 µM (inactive) | 13.9 µM (inactive) | > 82.8 µM (inactive) | > 54.8 µM (inactive) | 17.5 µM (inactive) | 20.1 µM (inactive) | 27.4 µM (inactive) | > 100 µM (inactive) | > 41.9 µM (inactive) | 24.7 µM (inactive) | > 100 µM (inactive) | > 100 µM | 14.6 µM (inactive) | 22.7 µM (inactive) |
